Inconclusive results and toxic doses are left out. The calls were made as follows: active = survival T/C of 150% or more; inactive = T/C below 125% in these data.
Tested on: CD2F1 mice, L1210 leukemia ip, survival T/C
Test: NCI In Vivo Anticancer Drug Screen. Data for tumor model L1210 Leukemia (intraperitoneal) in CD2F1 (CDF1) mice
Conditions: higher = longer survival
Method in brief: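 Tumor-bearing mice (transplanted tumor) were split into treated and vehicle control groups, and the measured endpoint of each treated group was divided by that of its vehicle controls.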

[1] = endpoint: mean survival time, dose: 12.5 mg/kg/injection, schedule: Q01DX009 (ip), vehicle: saline with Tween-80
[2] = endpoint: mean survival time, dose: 25.0 mg/kg/injection, schedule: Q01DX005 (ip), vehicle: saline with Tween-80
[3] = endpoint: mean survival time, dose: 25.0 mg/kg/injection, schedule: Q01DX009 (ip), vehicle: saline with Tween-80
[4] = endpoint: mean survival time, dose: 50.0 mg/kg/injection, schedule: Q01DX005 (ip), vehicle: saline with Tween-80
[5] = endpoint: mean survival time, dose: 50.0 mg/kg/injection, schedule: Q01DX009 (ip), vehicle: saline with Tween-80
[6] = endpoint: mean survival time, dose: 50.0 mg/kg/injection, schedule: Q04DX002 (ip), vehicle: saline with Tween-80
[7] = endpoint: mean survival time, dose: 100.0 mg/kg/injection, schedule: Q01DX005 (ip), vehicle: saline with Tween-80
[8] = endpoint: mean survival time, dose: 100.0 mg/kg/injection, schedule: Q01DX009 (ip), vehicle: saline with Tween-80
[9] = endpoint: mean survival time, dose: 100.0 mg/kg/injection, schedule: Q04DX002 (ip), vehicle: saline with Tween-80
[10] = endpoint: mean survival time, dose: 200.0 mg/kg/injection, schedule: Q04DX002 (ip), vehicle: saline with Tween-80
[11] = endpoint: mean survival time, dose: 400.0 mg/kg/injection, schedule: Q04DX002 (ip), vehicle: saline with Tween-80
[12] = endpoint: mean survival time, dose: 100.0 mg/kg/injection, schedule: Q04DX003 (ip), vehicle: saline with Tween-80
[13] = endpoint: mean survival time, dose: 200.0 mg/kg/injection, schedule: Q04DX003 (ip), vehicle: saline with Tween-80
[14] = endpoint: mean survival time, dose: 400.0 mg/kg/injection, schedule: Q04DX003 (ip), vehicle: saline with Tween-80
[15] = endpoint: mean survival time, dose: 100.0 mg/kg/injection, schedule: Q01DX001 (ip), vehicle: saline
[16] = endpoint: mean survival time, dose: 200.0 mg/kg/injection, schedule: Q01DX001 (ip), vehicle: saline
[17] = endpoint: mean survival time, dose: 200.0 mg/kg/injection, schedule: Q01DX009 (ip), vehicle: saline with Tween-80
[18] = endpoint: mean survival time, dose: 12.5 mg/kg/injection, schedule: Q04DX002 (ip), vehicle: saline with Tween-80
[19] = endpoint: mean survival time, dose: 25.0 mg/kg/injection, schedule: Q04DX002 (ip), vehicle: saline with Tween-80

Measured: T/C

CC(C)C(O)c1ccccc1 (stereo unspecified)
inactive: [1] 103 % of control | [2] 92 % of control | [3] 106 % of control | [4] 95 % of control | [5] 95 % of control | [6] 108 % of control | [7] 88 % of control | [8] 88 % of control | [9] 101 % of control | [10] 89 % of control

ClC1(Cl)C2CCCCCCC21 (stereo unspecified)
inactive: endpoint: mean survival time, dose: 100.0 mg/kg/injection, schedule: Q01DX001 (ip), vehicle: saline sonified 95 % of control | endpoint: mean survival time, dose: 100.0 mg/kg/injection, schedule: Q01DX009 (ip), vehicle: saline sonified 103 % of control | [9] 91 % of control | endpoint: mean survival time, dose: 200.0 mg/kg/injection, schedule: Q01DX001 (ip), vehicle: saline sonified 105 % of control | endpoint: mean survival time, dose: 200.0 mg/kg/injection, schedule: Q01DX009 (ip), vehicle: saline sonified 101 % of control | [10] 95 % of control | endpoint: mean survival time, dose: 400.0 mg/kg/injection, schedule: Q01DX001 (ip), vehicle: saline sonified 100 % of control | endpoint: mean survival time, dose: 400.0 mg/kg/injection, schedule: Q01DX009 (ip), vehicle: saline sonified 103 % of control

O=P(N1CCCCCC1)(N1CCCCCC1)N1CCCCCC1.O=[N+]([O-])O.O=[N+]([O-])O.[O]=[U]=[O]
inactive: endpoint: mean survival time, dose: 6.25 mg/kg/injection, schedule: Q04DX003 (ip), vehicle: Klucel (hydroxypropylcellulose) (HPC) 109 % of control

CCCCCCCC/C=C\CCCCCCCC(=O)OCCCCCCCC
inactive: [9] 95 % of control | [10] 95 % of control | [11] 102 % of control

Cc1c(Cl)cccc1NC(=O)COc1ccc(Cl)cc1Cl
inactive: [12] 94 % of control | [13] 98 % of control | [14] 96 % of control

CCCCCCCCCCCC(CCCCCCC)c1ccc(C)cc1 (stereo unspecified)
inactive: [15] 91 % of control | [16] 94 % of control | endpoint: mean survival time, dose: 400.0 mg/kg/injection, schedule: Q01DX001 (ip), vehicle: saline 97 % of control

[N-]=[N+]=NCC1OC(OC2(CO)OC(CN=[N+]=[N-])C(O)C2O)C(O)C(O)C1O (stereo unspecified)
inactive: endpoint: mean survival time, dose: 50.0 mg/kg/injection, schedule: Q01DX009 (ip), vehicle: saline 102 % of control | endpoint: mean survival time, dose: 100.0 mg/kg/injection, schedule: Q01DX009 (ip), vehicle: saline 102 % of control

Cc1ccc(C2c3c(nc[nH]c3=O)OC2(C)C)cc1 (stereo unspecified)
inactive: [9] 114 % of control | [10] 106 % of control | [11] 111 % of control

CC(Br)C(=O)c1ccc2ncccc2c1 (stereo unspecified)
inactive: endpoint: mean survival time, dose: 12.5 mg/kg/injection, schedule: Q04DX002 (ip), vehicle: saline + alcohol 98 % of control | endpoint: mean survival time, dose: 25.0 mg/kg/injection, schedule: Q04DX002 (ip), vehicle: saline + alcohol 101 % of control | endpoint: mean survival time, dose: 50.0 mg/kg/injection, schedule: Q04DX002 (ip), vehicle: saline + alcohol 95 % of control

COC(=O)CCC(NC(=O)c1cccc(N(C)C=O)c1)C(=O)OC (stereo unspecified)
inactive: endpoint: mean survival time, dose: 100.0 mg/kg/injection, schedule: Q01DX001 (ip), vehicle: saline with Tween-80 104 % of control | [12] 100 % of control | endpoint: mean survival time, dose: 200.0 mg/kg/injection, schedule: Q01DX001 (ip), vehicle: saline with Tween-80 115 % of control | [13] 100 % of control | endpoint: mean survival time, dose: 400.0 mg/kg/injection, schedule: Q01DX001 (ip), vehicle: saline with Tween-80 104 % of control | [14] 96 % of control

Nc1cccc2c1C(=O)c1cccc(Cl)c1C2=O
inactive: [8] 95 % of control | [17] 106 % of control | endpoint: mean survival time, dose: 400.0 mg/kg/injection, schedule: Q01DX009 (ip), vehicle: saline with Tween-80 109 % of control

Nc1ccc(CCCCc2ccccc2)cc1
inactive: endpoint: mean survival time, dose: 100.0 mg/kg/injection, schedule: Q04DX003 (ip), vehicle: acetone 107 % of control

O=[N+]([O-])c1c(Br)sc(Br)c1[N+](=O)[O-]
inactive: [1] 97 % of control | endpoint: mean survival time, dose: 12.5 mg/kg/injection, schedule: Q04DX003 (ip), vehicle: saline with Tween-80 101 % of control | [3] 88 % of control | endpoint: mean survival time, dose: 25.0 mg/kg/injection, schedule: Q04DX003 (ip), vehicle: saline with Tween-80 103 % of control | [5] 95 % of control | endpoint: mean survival time, dose: 50.0 mg/kg/injection, schedule: Q04DX003 (ip), vehicle: saline with Tween-80 109 % of control

CCCC(P(=O)(c1ccccc1)c1ccccc1)[P+](CC)(c1ccccc1)c1ccccc1 (stereo unspecified)
inactive: endpoint: mean survival time, dose: 6.25 mg/kg/injection, schedule: Q04DX002 (ip), vehicle: saline with Tween-80 100 % of control | [18] 96 % of control | [19] 92 % of control

CCCCCCCCCSCCOC(=S)N(C)C
inactive: [9] 93 % of control | [10] 93 % of control | [11] 93 % of control

CC(C)OC(=O)Nc1ccc(F)cc1
inactive: endpoint: mean survival time, dose: 100.0 mg/kg/injection, schedule: Q01DX009 (ip), vehicle: other 94 % of control | endpoint: mean survival time, dose: 200.0 mg/kg/injection, schedule: Q01DX009 (ip), vehicle: other 91 % of control | endpoint: mean survival time, dose: 400.0 mg/kg/injection, schedule: Q01DX009 (ip), vehicle: other 100 % of control

CC(=O)Nc1nc(N)nc2nonc12
inactive: endpoint: mean survival time, dose: 12.5 mg/kg/injection, schedule: Q01DX005 (ip), vehicle: saline with Tween-80 100 % of control | [2] 98 % of control | [4] 100 % of control | [7] 96 % of control | endpoint: mean survival time, dose: 200.0 mg/kg/injection, schedule: Q01DX005 (ip), vehicle: saline with Tween-80 93 % of control

CC12C=CC(=O)C=C1CCCC2 (stereo unspecified)
inactive: [18] 96 % of control | [19] 91 % of control | [6] 96 % of control

OCCOc1ccc(Cl)cc1
inactive: [8] 104 % of control | [12] 96 % of control | [17] 100 % of control | [13] 96 % of control | [14] 103 % of control

O=C1CCCCCCC(=O)CCCCCC1
inactive: [18] 105 % of control | [19] 101 % of control | [6] 105 % of control

CCC1(O)C(=O)OCc2c1cc1n(c2=O)Cc2cc3ccc([N+](=O)[O-])cc3nc2-1 (stereo unspecified)
inactive: endpoint: median survival time, dose: 10.0 mg/kg/injection, schedule: Q04DX002 (ip), vehicle: saline with Tween-80 114 % of control

O=C(N/N=C/c1ccccc1Cl)c1ccccc1
inactive: endpoint: mean survival time, dose: 100.0 mg/kg/injection, schedule: Q01DX009 (ip), vehicle: Klucel (hydroxypropylcellulose) (HPC) 103 % of control | endpoint: mean survival time, dose: 200.0 mg/kg/injection, schedule: Q01DX009 (ip), vehicle: Klucel (hydroxypropylcellulose) (HPC) 98 % of control | endpoint: mean survival time, dose: 400.0 mg/kg/injection, schedule: Q01DX009 (ip), vehicle: Klucel (hydroxypropylcellulose) (HPC) 107 % of control

CN(C)C1CCCC(OC(=O)c2ccccc2)C1 (stereo unspecified)
inactive: endpoint: mean survival time, dose: 25.0 mg/kg/injection, schedule: Q04DX002 (ip), vehicle: saline 97 % of control | endpoint: mean survival time, dose: 50.0 mg/kg/injection, schedule: Q04DX002 (ip), vehicle: saline 105 % of control | [15] 101 % of control | endpoint: mean survival time, dose: 100.0 mg/kg/injection, schedule: Q04DX002 (ip), vehicle: saline 94 % of control | [16] 100 % of control

Reference: PubChem BioAssay AID256 (DTP/NCI, 2004)
